pIC50: −log10 of the molar value. Some results are limits rather than exact numbers.

Here are results for four compounds from patent US20060189602A1, “Pyridazinone compounds” (Anadys Pharmaceuticals, Inc., priority 2004, published 2006).

This assay has as its target HCV NS5B polymerase (Hepatitis C virus genotype 1b, UniProt P26663). Put plainly: NS5B Polymerase Inhibition Assay. As to conditions: 50 nM enzyme, [α-33P]GTP, oligo (rG13)/poly rC, 75 min at 28° C. It is filed as biochemical. As for the experimental part: NS5B Polymerase Inhibition Assay
Compounds were tested for HCV polymerase inhibition. Assays were performed in a 96-well streptavidin-coated FlashPlate using 50 nM enzyme, 0.5 μCi of [α-^33P]GTP, 0.63 μM GTP, and 250 nM 5′biotinylated oligo (rG13)/poly rC in 20 mM Tris-HCl, pH 7.5, 5 mM MgCl2, 20 mM NaCl, 5 mM dithiothreitol, and 0.1 g/L BSA. The reaction was stopped by aspiration after 75 min at 28° C. and the plate was washed several times. After washing, incorporated radioactivity was counted using a Microbeta scintillation counter.

Chain of HCV NS5B polymerase (P26663 2420-3010): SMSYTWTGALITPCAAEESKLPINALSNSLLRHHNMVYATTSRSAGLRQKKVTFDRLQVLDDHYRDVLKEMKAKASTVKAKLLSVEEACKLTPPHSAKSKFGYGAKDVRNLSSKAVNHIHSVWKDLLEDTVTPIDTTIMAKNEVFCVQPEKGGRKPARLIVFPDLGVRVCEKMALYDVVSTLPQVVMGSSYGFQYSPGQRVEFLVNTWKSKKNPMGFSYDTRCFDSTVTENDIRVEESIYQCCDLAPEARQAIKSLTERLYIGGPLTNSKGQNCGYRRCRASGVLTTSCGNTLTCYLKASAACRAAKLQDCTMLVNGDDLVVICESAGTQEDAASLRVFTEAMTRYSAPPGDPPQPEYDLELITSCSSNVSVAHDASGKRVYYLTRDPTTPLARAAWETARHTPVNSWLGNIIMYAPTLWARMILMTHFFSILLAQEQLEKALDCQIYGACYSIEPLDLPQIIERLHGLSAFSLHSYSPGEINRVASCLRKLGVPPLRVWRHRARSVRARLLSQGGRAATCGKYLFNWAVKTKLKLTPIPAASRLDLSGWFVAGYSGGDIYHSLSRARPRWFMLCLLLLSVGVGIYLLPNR

As usually defined, the pIC50 is the negative decadic logarithm of the IC50, by convention in mol/L. As to `Cc1ccc(-c2nn(CCC(C)(C)C)c(=O)c(C3=NS(=O)(=O)c4cc(OCC(N)=O)ccc4N3)c2O)s1` [Compound 64, 2-{3-[2-(3,3-Dimethyl-butyl)-5-hydroxy-6-(5-methyl-thiophen-2-yl)-3-ox-o-2,3-dihydro-pyridazin-4-yl]-1,1-dioxo-1,2-di-hydro-1λ^6-benzo[1,2,4]thiadiazin-7-yloxy}-acetamide], the pIC50 was greater than 5.00.
As for `Cc1ccsc1-c1nn(CCC(C)C)c(=O)c(C2=NS(=O)(=O)c3cc(OCC(N)=O)ccc3N2)c1O` [Compound 65, 2-{3-[5-Hydroxy-2-(3-methyl-butyl)-6-(3-methyl-thiophen-2-yl)-3-ox-o-2,3-dihydro-pyridazin-4-yl]-1,1-dioxo-1,2-dihydro-1λ^6-ben-zo[1,2,4]thiadiazin-7-yloxy}-acetamide], the figure is greater than 5.00.
The same measure for `COc1ccc2c(c1)S(=O)(=O)NC(c1c(O)c(C(C)(C)C)nn(CCC(C)(C)C)c1=O)=N2` [Compound 66, 6-tert-Butyl-2-(3,3-dimethyl-butyl)-5-hydroxy-4-(7-methoxy-1,1-di-oxo-1,2-dihydro-1λ^6-benzo[1,2,4]thiadiazin-3-yl)-2H-py-ridazin-3-one]: 4.30 to 5.00; for `CC(C)(C)CCn1nc(C(C)(C)C)c(O)c(C2=Nc3ccc(O)cc3S(=O)(=O)N2)c1=O` [Compound 67, 6-tert-Butyl-2-(3,3-dimethyl-butyl)-5-hydroxy-4-(7-hydroxy-1,1-di-oxo-1,2-dihydro-1λ^6-benzo[1,2,4]thiadiazin-3-yl)-2H-py-ridazin-3-one]: greater than 5.00.
